Results as given in patent US20170285010A1, “Analytical Methods and Arrays for Use in the Same” (SENZAGEN AB, priority 2014, published 2017).
Read-outs that look alike come from different tables or passages of the source.

Key:
MUTZ-3 [1] = assay: GARD Respiratory Prediction Signature (GRPS) SVM classification of the independent test dataset; settings: for SVM decision value: MUTZ-3, 24 h stimulation at GARD input concentration, 389 GRPS transcripts
Procedure: (§1) The human acute myelomonocytic leukemia cell line MUTZ-3[68,69] was obtained from Leibniz-lnstitut DSMZ-Deutsche Sammlung von Mikroorganismen and Zellkulturen (DSMZ, Braunschweig, Germany). Maintenance of cells, chemical stimulation of MUTZ-3 and all subsequent isolation of mRNA and preparation of cDNA were performed as previously described. In short, a phenotypic control of MUTZ-3 was performed using flow cytometry prior to chemical stimulation to ensure cells were in an immature state. The following FITC-conjugated mouse monoclonal antibodies (mAbs) were used: CD1a (DakoCytomation, Glostrup, Denmark), CD34, CD86, HLA-DR, IgG1 (BD Biosciences, Franklin Lakes, N.J.). The following PE-conjugated mouse monoclonal antibodies were used: CD14 (DakoCytomation), CD54, CD80, IgG1 (BD Biosciences). Cell viability was determined using Propidium Iodide (BD Biosciences) staining. Samples were run on FACSCanto II instrument. Data was acquired using FACS Diva software (BD Biosciences) and analyzed using FCS Express V4 (De Novo Software, Los Angeles, Calif.). Gating was performed to exclude cell debris and non-viable cells based on forward- and side-scattering properties and quadrants established using isotype-controls. During chemical exposure, cells were seeded at 200.000 cells/ml in 24-well plates and exposed to chemical compound at the GARD input concentration. Stimulated cells were harvested after 24 h incubation at 37° C., 5% CO2 and RNA was isolated with TRIzol® reagent (Life Technologies, Carlsbad, Calif.) using standardized protocols provided by the manufacturer. In parallel, a control of the maturity state of the cells was performed by flow cytometric analysis of CD86. Preparation of cDNA and hybridization, washing and scanning of the Human Gene 1.0 ST Arrays (Affymetrix, Santa Clara, Calif., USA) was performed, according to standardized protocols provided by the manufacturer (Affymetrix).
Gene expression data obtained from the Human Gene 1.0 ST Arrays were normalized using the Single-Channel array normalization (SCAN) algorithm, and potential batch effects between different set of experiments were adjusted using the ComBat empirical bayes method. Normalizations and batch adjustments were performed in R statistical software using the open software Bioconductor v2.14 [73] with the additional software packages SCAN.UPC [70] and sva . Normalized data was imported into Qlucore Omics Explorer 3.0 (Qlucore AB, Lund, Sweden) and visualized using Principal Component Analysis (PCA). Predictors were selected from a one-way ANOVA p-value filtration, using false discovery rate (FDR) to adjust for multiple hypothesis testing, comparing respiratory sensitizers and non-respiratory sensitizers. […] The Backward Elimination algorithm was modified to minimize the Kullback-Leibler error [53] rather than maximizing the Area Under the Receiver Operating Characteristic (AUC ROC), in order to enable signature optimization in cases where the AUC ROC reaches 1.0. […] The script for Backwards Elimination was programmed in R, with the additional package e1071 [78]. The method by which the predictive genomic biomarker signature was established was validated using cross-validation based on Support Vector Machines (SVM), based on a linear kernel, as described previously. In short, the training dataset was randomly divided into a new cross-validation training dataset comprising 70% of the stimulations, and a cross-validation test dataset comprising 30% of the stimulations. In addition, care was taken to maintain the same proportion between respiratory sensitizers and non-respiratory sensitizers as in the complete training dataset. A new predictive genomic biomarker signature was identified from the cross-validation training dataset using one-way ANOVA p-value filtration as described above.

MUTZ-3 [2] = assay: Chemical cytotoxicity, Rv90 (90% relative viability), propidium iodide staining
Excerpt: A panel of 32 reference chemicals comprising a selection of 10 well characterized respiratory sensitizers and 22 non-respiratory sensitizers, collectively termed the training dataset, were used for cell stimulations in order to establish the predictive genomic biomarker signature. […] Additionally, a panel of 25 chemicals, including 6 respiratory sensitizers and 19 non-respiratory sensitizers, collectively termed the independent test dataset, were used for cell stimulations in order to form an independent testset for validation of the identified predictive genomic biomarker signature. The independent training dataset comprised both control chemicals, included during the training of the model, as well as chemicals previously unseen during training of the model. […] All chemicals were purchased from Sigma-Aldrich (St. Louis, Mo., USA). Chemicals were dissolved and diluted into GARD input concentration in either water or DMSO prior to stimulation of cells. For chemicals dissolved in DMSO, the in-well concentration of DMSO was 0.1%. Monitoring of chemical cytotoxicity and establishment of GARD input concentration for each chemical compound was performed as previously described. […] Toxic compounds were used at a concentration yielding 90% relative viability (Rv90). The criterion that was first met determined the GARD input concentration for each compound.
as §1

CD86 = CD86 expression of MUTZ-3 cells following chemical stimulation (flow cytometry); type: cell-based, human; settings: MUTZ-3, 24 h stimulation, compared with vehicle/unstimulated cells, student's t-test p<0.05
Procedure: CD86 expression of MUTZ-3 cells following chemical stimulations. […] Statistical significance was determined by student's t-test, comparing each stimulation with its corresponding vehicle, with p<0.05 indicated by *.
Maintenance of cells, chemical stimulation of MUTZ-3 and all subsequent isolation of mRNA and preparation of cDNA were performed as previously described [41,42]. In short, a phenotypic control of MUTZ-3 was performed using flow cytometry prior to chemical stimulation to ensure cells were in an immature state. The following FITC-conjugated mouse monoclonal antibodies (mAbs) were used: CD1a (DakoCytomation, Glostrup, Denmark), CD34, CD86, HLA-DR, IgG1 (BD Biosciences, Franklin Lakes, N.J.). The following PE-conjugated mouse monoclonal antibodies were used: CD14 (DakoCytomation), CD54, CD80, IgG1 (BD Biosciences). Cell viability was determined using Propidium Iodide (BD Biosciences) staining. Samples were run on FACSCanto II instrument. Data was acquired using FACS Diva software (BD Biosciences) and analyzed using FCS Express V4 (De Novo Software, Los Angeles, Calif.). Gating was performed to exclude cell debris and non-viable cells based on forward- and side-scattering properties and quadrants established using isotype-controls. During chemical exposure, cells were seeded at 200.000 cells/ml in 24-well plates and exposed to chemical compound at the GARD input concentration. Stimulated cells were harvested after 24 h incubation at 37° C., 5% CO2 and RNA was isolated with TRIzol® reagent (Life Technologies, Carlsbad, Calif.) using standardized protocols provided by the manufacturer. In parallel, a control of the maturity state of the cells was performed by flow cytometric analysis of CD86.
Prior to chemical challenge, cells were quality controlled by measuring the cellular expression of common myeloid and dendritic cell markers using flow cytometry. These markers included CD1a, CD14, CD34, CD54, CD80, CD86 and HLA-DR.

[3] = Max solubility of chemicals for establishing the GARD input concentration
[4] = concentration yielding 90% relative viability, MUTZ-3, Table 2
[5] = respiratory sensitizer if any replicate stimulation has SVM decision value >0
[6] = concentration yielding 90% relative viability, MUTZ-3, Table 1
[7] = reference compounds used during assay development (Table 1)

Row | SMILES | Classification Pos if 1 sample >0 (MUTZ-3 [1]) | SVM decision value (MUTZ-3 [1]; replicate 1) | SVM decision value (MUTZ-3 [1]; replicate 2) | SVM decision value (MUTZ-3 [1]; replicate 3) | also measured
1 | CCCCO [1-Butanol] | Sensitizer (key: Sensitizer: classified as a respiratory sensitizer if any of replicate stimulations have a SVM decision value > 0) | −0.32 | 0.12 |  | 
2 | O=[N+]([O-])c1ccc(Cl)c([N+](=O)[O-])c1 [2,4-dinitrochlorobenzene] |  | −1.66 | −1.18 | −1.90 | Rv90 (MUTZ-3 [2]; [4]): 4 µM; Classification Pos if 1 sample >0 (MUTZ-3 [1]; [5]): Non-sensitizer
3 | Nc1ccccc1O [2-Aminophenol] |  |  |  |  | Rv90 (MUTZ-3 [2]; [6]): 100 µM; Chemically induced up-regulation of CD86 (CD86): up-regulation of CD86 was also observed
4 | C=CC(=O)OCCO [2-Hydroxyethyl acrylate] |  |  |  |  | Rv90 (MUTZ-3 [2]; [6]): 100 µM
5 | Sc1nc2ccccc2s1 [2-mercaptobenzothiazole] |  | −0.44 | −0.43 | −0.57 | 
6 | O=Cc1ccccc1 [Benzaldehyde] |  | −0.79 | −0.87 | −0.70 | Classification Pos if 1 sample >0 (MUTZ-3 [1]; [5]): Non-sensitizer
7 | Cc1ccc(S(=O)(=O)[N-]Cl)cc1.[Na+] [Chloramine T] |  | 0.52 | 0.59 |  | Classification Pos if 1 sample >0 (MUTZ-3 [1]; [5]): Sensitizer (classified as a respiratory sensitizer if any of replicate stimulations have a SVM decision value > 0)
8 | Clc1ccccc1 [Chlorobenzene] |  | −1.03 | −0.76 | −1.15 | SVM decision value (MUTZ-3 [1]; replicate 4): 0.24; SVM decision value (MUTZ-3 [1]; replicate 5): 0.06; Classification Pos if 1 sample >0 (MUTZ-3 [1]; [5]): Sensitizer (classified as a respiratory sensitizer if any of replicate stimulations have a SVM decision value > 0)
9 | OCC=Cc1ccccc1 [Cinnamyl alcohol] | Non-sensitizer | −0.57 | −1.44 | −1.26 | 
10 | CCOC(=O)c1ccccc1C(=O)OCC [Diethyl phthalate] |  | −1.37 | −0.96 | −1.22 | Classification Pos if 1 sample >0 (MUTZ-3 [1]; [5]): Non-sensitizer
11 | C=CCc1ccc(O)c(OC)c1 [Eugenol] | Non-sensitizer | −1.67 | −1.53 | −1.51 | Rv90 (MUTZ-3 [2]; human): 300 µM
12 | C=O [Formaldehyde] |  |  |  |  | Rv90 (MUTZ-3 [2]; human): 80 µM
13 | O=CCCCC=O [Glutaraldehyde] |  |  |  |  | Rv90 (MUTZ-3 [2]; human): 10 µM; Chemically induced up-regulation of CD86 (CD86): statistically significant
14 | OCC(O)CO [Glycerol] | Non-sensitizer | −1.05 | −1.11 | −0.77 | 
15 | O=CC=O [Glyoxal] |  | −1.02 | −0.69 | −0.56 | Rv90 (MUTZ-3 [2]; [4]): 300 µM; Classification Pos if 1 sample >0 (MUTZ-3 [1]; [5]): Non-sensitizer
16 | CC=Cc1ccc(O)c(OC)c1 [Isoeugenol] |  |  |  |  | Rv90 (MUTZ-3 [2]; human): 300 µM
17 | CC(O)C(=O)O (centres unmarked) [Lactic acid] |  | −1.20 | −0.81 | −0.89 | 
18 | O=C=Nc1ccc(Cc2ccc(N=C=O)cc2)cc1 [Methylene diphenol diisocyanate] |  |  |  |  | Max solubility [3, 7]: 50 µM
19 | CCCCCCCC(=O)O [Octanoic acid] | Non-sensitizer | −0.65 | −0.79 | −1.22 | 
20 | Oc1ccccc1 [Phenol] | Non-sensitizer |  |  |  | 
21 | O=C1OC(=O)c2ccccc21 [Phtalic Anhydride] |  | 0.20 | −0.12 |  | Classification Pos if 1 sample >0 (MUTZ-3 [1]; [5]): Sensitizer (classified as a respiratory sensitizer if any of replicate stimulations have a SVM decision value > 0); Max solubility ([3]; chemicals of the independent dataset (Table 2)): 200 µM; Max solubility [3, 7]: 200 µM
22 | C1CNCCN1 [Piperazine] | Non-sensitizer | −0.05 | −0.12 |  | 
23 | Oc1cccc(O)c1 [Resorcinol] | Non-sensitizer | −1.01 | −0.99 | −1.40 | 
24 | O=C(O)c1ccccc1O [Salicylic acid] | Non-sensitizer | −0.73 | −1.08 | −1.13 | 
25 | CCCCCCCCCCCCOS(=O)(=O)[O-].[Na+] [Sodium dodecyl sulphate] | Non-sensitizer | −1.49 | −0.80 | −1.30 | Rv90 (MUTZ-3 [2]; [4]): 200 µM
26 | O=C(O)c1ccc(O)cc1 [p-hydroxybenzoic acid] | Non-sensitizer | −0.81 | −0.56 | −1.09 | 
27 | Nc1ccc(N)cc1 [p-phenylenediamine] |  | −1.38 | −1.19 | −1.80 | Rv90 (MUTZ-3 [2]; [4]): 75 µM; Classification Pos if 1 sample >0 (MUTZ-3 [1]; [5]): Non-sensitizer
